Laboratory results as given in paper PMC8286840, “Identifying SARS-CoV-2 antiviral compounds by screening for small molecule inhibitors of Nsp3 papain-like protease” (Biochemical Journal, 2021).
Counter-ions that a name gives are not always drawn. Like-named read-outs stand apart in the source and are kept apart here. Where a SMILES comes first, the peptide text is derived from it. [ ]: non-standard residue; d: D form. The star is where a group is joined. Sta = CC(C)C[C@H](N)[C@@H](O)CC(=O)O; Isovaleryl = CC(C)CC(=O)*

Legend:
[1] = biological target: T1, SARS-CoV-2 PLpro (nsp3 1564–1878) (Severe acute respiratory syndrome coronavirus 2, UniProt P0DTD1); experiment: biochemical; set-up: FRET-quenched peptide (Pro3) cleavage by PLpro, 10 min pre-incubation, slope over 20 min, normalised to no-compound control; details: high concentration screen, read-out: % of control remaining
[2] = biological target: T1, SARS-CoV-2 PLpro (nsp3 1564–1878); experiment: biochemical; set-up: FRET-quenched peptide (Pro3) cleavage by PLpro, 10 min pre-incubation, slope over 20 min, normalised to no-compound control; details: low concentration screen, read-out: % of control remaining

How did the remaining activity at 3.75 µM ([1]; Well no.=8316) turn out when `Nc1nc2[nH]cc(CCc3ccc(C(=O)N[C@@H](CCC(=O)O)C(=O)O)cc3)c2c(=O)[nH]1` [Pemetrexed] was run?
Its remaining activity at 3.75 µM is 101%.

What about the remaining activity at 1.25 µM ([2]; Well no.=8316) of the same molecule?
The remaining activity at 1.25 µM was 103%.

With `Cc1cccn2c(=O)c(-c3nnn[nH]3)cnc12` [Pemirolast (potassium)] as the molecule, how does the remaining activity at 3.75 µM ([1]; Well no.=7611) read?
Its remaining activity at 3.75 µM is 96.7%.

And the remaining activity at 1.25 µM ([2]; Well no.=7611)?
The remaining activity at 1.25 µM was 98.6%.

With `CN1C(C)(C)CCCC1(C)C` [Pempidine tartrate] as the molecule, how does the remaining activity at 3.75 µM ([1]; Well no.=1052) read?
Its remaining activity at 3.75 µM is 95%.

What about the remaining activity at 1.25 µM ([2]; Well no.=1052) of the same molecule?
Its remaining activity at 1.25 µM is 94%.

With `Nc1nc(O)c2ncn(CCC(CO)CO)c2n1` [Penciclovir] as the molecule, how does the remaining activity at 3.75 µM ([1]; Well no.=2099) read?
Its remaining activity at 3.75 µM is 98.9%.

What about the remaining activity at 3.75 µM ([1]; Well no.=8002) of the same molecule?
The remaining activity at 3.75 µM was 102%.

And the remaining activity at 1.25 µM ([2]; Well no.=2099)?
The remaining activity at 1.25 µM was 97.6%.

What about the remaining activity at 1.25 µM ([2]; Well no.=8002) of the same molecule?
Its remaining activity at 1.25 µM is 105%.

What does the source list for `CCCCCCCCCCCCCCC(=O)O` [Pentadecanoic acid]?
remaining activity at 3.75 µM ([1]; Well no.=4588): 95.6%; remaining activity at 3.75 µM ([1]; Well no.=7021): 103%; remaining activity at 1.25 µM ([2]; Well no.=4588): 95%; remaining activity at 1.25 µM ([2]; Well no.=7021): 110%

Which results are given for `N=C(N)c1ccc(OCCCCCOc2ccc(C(=N)N)cc2)cc1` [Pentamidine HCl]?
remaining activity at 3.75 µM ([1]; Well no.=4648): 98.1%; remaining activity at 1.25 µM ([2]; Well no.=4648): 98.3%

How did the remaining activity at 3.75 µM ([1]; Well no.=996) turn out when `N=C(N)c1ccc(OCCCCCOc2ccc(C(=N)N)cc2)cc1` [Pentamidine isethionate] was run?
Its remaining activity at 3.75 µM is 101%.

And the remaining activity at 1.25 µM ([2]; Well no.=996)?
The remaining activity at 1.25 µM was 101%.

What does the source list for `N=C(N)c1ccc(OCCCCCOc2ccc(C(=N)N)cc2)cc1` [Pentamidine]?
remaining activity at 3.75 µM ([1]; Well no.=1766): 99.6%; remaining activity at 1.25 µM ([2]; Well no.=1766): 97.3%

How did the remaining activity at 3.75 µM ([1]; Well no.=810) turn out when `C[N+]1(CCCCC[N+]2(C)CCCC2)CCCC1` [Pentolinium di[L(+)-tartrate]] was run?
Its remaining activity at 3.75 µM is 96.3%.

And the remaining activity at 1.25 µM ([2]; Well no.=810)?
Its remaining activity at 1.25 µM is 96.7%.

Which remaining activity at 3.75 µM ([1]; Well no.=1046) does the source give for `CC(=O)CCCCn1c(=O)c2c(ncn2C)n(C)c1=O` [Pentoxifylline] here?
Its remaining activity at 3.75 µM is 94.8%.

What about the remaining activity at 3.75 µM ([1]; Well no.=2101) of the same molecule?
The remaining activity at 3.75 µM was 100%.

What about the remaining activity at 1.25 µM ([2]; Well no.=1046) of the same molecule?
The remaining activity at 1.25 µM was 92.7%.

And the remaining activity at 1.25 µM ([2]; Well no.=2101)?
The remaining activity at 1.25 µM was 101%.

How did the remaining activity at 3.75 µM ([1]; Well no.=1054) turn out when `C1CCc2nnnn2CC1` [Pentylenetetrazole] was run?
Its remaining activity at 3.75 µM is 99.6%.

And the remaining activity at 1.25 µM ([2]; Well no.=1054)?
Its remaining activity at 1.25 µM is 97.5%.

Which results are given for `CC(C)CC(=O)N[C@H](C(=O)N[C@H](C(=O)N[C@@H](CC(C)C)[C@@H](O)CC(=O)N[C@@H](C)C(=O)N[C@@H](CC(C)C)[C@@H](O)CC(=O)O)C(C)C)C(C)C` [Pepstatin A] (Isovaleryl-VV[Sta]A[Sta]-OH)?
remaining activity at 3.75 µM ([1]; Well no.=8764): 92.8%; remaining activity at 1.25 µM ([2]; Well no.=8764): 91.3%

For `CCCN1C[C@H](CSC)C[C@@H]2c3cccc4[nH]cc(c34)C[C@H]21` [Pergolide mesylate], which remaining activity at 3.75 µM ([1]; Well no.=1602) is on record?
The remaining activity at 3.75 µM was 97.1%.

And the remaining activity at 1.25 µM ([2]; Well no.=1602)?
The remaining activity at 1.25 µM was 94.9%.

With `CCCN1C[C@H](CSC)C[C@@H]2c3cccc4[nH]cc(c34)C[C@H]21` [Pergolide methanesulfonate] as the molecule, how does the remaining activity at 3.75 µM ([1]; Well no.=1257) read?
The remaining activity at 3.75 µM was 111%.

What about the remaining activity at 1.25 µM ([2]; Well no.=1257) of the same molecule?
Its remaining activity at 1.25 µM is 112%.

How did the remaining activity at 3.75 µM ([1]; Well no.=5958) turn out when `C1CCC(C(CC2CCCCN2)C2CCCCC2)CC1` (stereo not drawn) [Perhexiline maleate salt] was run?
The remaining activity at 3.75 µM was 95.4%.

What about the remaining activity at 1.25 µM ([2]; Well no.=5958) of the same molecule?
The remaining activity at 1.25 µM was 97.2%.

Which remaining activity at 3.75 µM ([1]; Well no.=3429) does the source give for `C=C(C)[C@@H]1CC=C(C(=O)O)CC1` [Perillic acid] here?
The remaining activity at 3.75 µM was 93.2%.

And the remaining activity at 1.25 µM ([2]; Well no.=3429)?
Its remaining activity at 1.25 µM is 93.1%.

How did the remaining activity at 3.75 µM ([1]; Well no.=8070) turn out when `CCC[C@H](N[C@@H](C)C(=O)N1[C@H](C(=O)O)C[C@@H]2CCCC[C@@H]21)C(=O)OCC` [Perindopril (erbumine)] was run?
Its remaining activity at 3.75 µM is 102%.

And the remaining activity at 1.25 µM ([2]; Well no.=8070)?
The remaining activity at 1.25 µM was 106%.

Which remaining activity at 3.75 µM ([1]; Well no.=8778) does the source give for `CCC[C@H](N[C@@H](C)C(=O)N1[C@H](C(=O)O)C[C@@H]2CCCC[C@@H]21)C(=O)OCC` [Perindopril Erbumine] here?
Its remaining activity at 3.75 µM is 84.8%.

What about the remaining activity at 1.25 µM ([2]; Well no.=8778) of the same molecule?
Its remaining activity at 1.25 µM is 89.7%.

What does the source list for `OCCN1CCN(CCCN2c3ccccc3Sc3ccc(Cl)cc32)CC1` [Perphenazine]?
remaining activity at 3.75 µM ([1]; Well no.=1006): 99.2%; remaining activity at 3.75 µM ([1]; Well no.=6319): 99.7%; remaining activity at 1.25 µM ([2]; Well no.=1006): 98.7%; remaining activity at 1.25 µM ([2]; Well no.=6319): 104%

For `CO[C@H]1[C@H](O)[C@H](O[C@H]2CC[C@@]3(C=O)[C@H](CC[C@@H]4[C@@H]3CC[C@]3(C)[C@@H](C5=CC(=O)OC5)CC[C@]43O)C2)O[C@@H](C)[C@@H]1O` [Peruvoside], which remaining activity at 3.75 µM ([1]; Well no.=3687) is on record?
Its remaining activity at 3.75 µM is 102%.

And the remaining activity at 1.25 µM ([2]; Well no.=3687)?
The remaining activity at 1.25 µM was 97.8%.

For `NCC(CP(=O)(O)O)c1ccc(Cl)cc1` (stereo not drawn) [Phaclofen], which remaining activity at 3.75 µM ([1]; Well no.=1167) is on record?
The remaining activity at 3.75 µM was 104%.

What about the remaining activity at 1.25 µM ([2]; Well no.=1167) of the same molecule?
Its remaining activity at 1.25 µM is 103%.

What does the source list for `CCOc1ccc(NC(C)=O)cc1` [Phenacetin]?
remaining activity at 3.75 µM ([1]; Well no.=4948): 93.7%; remaining activity at 1.25 µM ([2]; Well no.=4948): 98.7%

`N=C(NC(=O)c1nc(Cl)c(N)nc1N)Nc1ccccc1` [Phenamil methanesulfonate] was tested. Which remaining activity at 3.75 µM ([1]; Well no.=1313) did it give?
Its remaining activity at 3.75 µM is 99.6%.

What about the remaining activity at 1.25 µM ([2]; Well no.=1313) of the same molecule?
The remaining activity at 1.25 µM was 101%.

How did the remaining activity at 3.75 µM ([1]; Well no.=1203) turn out when `NNCCc1ccccc1` [Phenelzine sulfate] was run?
Its remaining activity at 3.75 µM is 98.7%.

What about the remaining activity at 1.25 µM ([2]; Well no.=1203) of the same molecule?
Its remaining activity at 1.25 µM is 99.6%.

`N=C(N)NC(=N)NCCc1ccccc1` [Phenformin HCl] was tested. Which remaining activity at 3.75 µM ([1]; Well no.=4908) did it give?
The remaining activity at 3.75 µM was 98.5%.

What about the remaining activity at 1.25 µM ([2]; Well no.=4908) of the same molecule?
Its remaining activity at 1.25 µM is 100%.

Which results are given for `O=C1CCN(c2ccccc2)N1` [Phenidone]?
remaining activity at 3.75 µM ([1]; Well no.=3951): 101%; remaining activity at 1.25 µM ([2]; Well no.=3951): 103%

What does the source list for `CN(C)CCC(c1ccccc1)c1ccccn1` (stereo not drawn) [Pheniramine (Maleate)]?
remaining activity at 3.75 µM ([1]; Well no.=6799): 90%; remaining activity at 1.25 µM ([2]; Well no.=6799): 99.4%

How did the remaining activity at 3.75 µM ([1]; Well no.=6797) turn out when `CC(COc1ccccc1)N(CCCl)Cc1ccccc1` (stereo not drawn) [Phenoxybenzamine (hydrochloride)] was run?
Its remaining activity at 3.75 µM is 93.2%.

What about the remaining activity at 1.25 µM ([2]; Well no.=6797) of the same molecule?
Its remaining activity at 1.25 µM is 99.8%.

Which remaining activity at 3.75 µM ([1]; Well no.=371) does the source give for `CC(COc1ccccc1)N(CCCl)Cc1ccccc1` (stereo not drawn) [Phenoxybenzamine hydrochloride] here?
The remaining activity at 3.75 µM was 91.2%.

And the remaining activity at 1.25 µM ([2]; Well no.=371)?
Its remaining activity at 1.25 µM is 95.1%.

How did the remaining activity at 3.75 µM ([1]; Well no.=1761) turn out when `CC(COc1ccccc1)N(CCCl)Cc1ccccc1` (stereo not drawn) [Phenoxybenzamine.HCl] was run?
Its remaining activity at 3.75 µM is 101%.

What about the remaining activity at 1.25 µM ([2]; Well no.=1761) of the same molecule?
Its remaining activity at 1.25 µM is 102%.

How did the remaining activity at 3.75 µM ([1]; Well no.=6093) turn out when `CN1CC[C@@]2(C)c3cc(OC(=O)Nc4ccccc4)ccc3N(C)[C@@H]12` [Phenserine] was run?
The remaining activity at 3.75 µM was 89.8%.

And the remaining activity at 1.25 µM ([2]; Well no.=6093)?
Its remaining activity at 1.25 µM is 90.2%.

Which remaining activity at 3.75 µM ([1]; Well no.=7326) does the source give for `Cc1ccc(N(CC2=NCCN2)c2cccc(O)c2)cc1` [Phentolamine (mesylate)] here?
Its remaining activity at 3.75 µM is 90%.

And the remaining activity at 1.25 µM ([2]; Well no.=7326)?
Its remaining activity at 1.25 µM is 93.7%.

Which results are given for `Cc1ccc(N(CC2=NCCN2)c2cccc(O)c2)cc1` [Phentolamine mesylate]?
remaining activity at 3.75 µM ([1]; Well no.=1253): 106%; remaining activity at 1.25 µM ([2]; Well no.=1253): 104%

`Cc1ccc(N(CC2=NCCN2)c2cccc(O)c2)cc1` [Phentolamine] was tested. Which remaining activity at 3.75 µM ([1]; Well no.=1635) did it give?
The remaining activity at 3.75 µM was 105%.

And the remaining activity at 1.25 µM ([2]; Well no.=1635)?
The remaining activity at 1.25 µM was 105%.

Which results are given for `NC(Cc1cccc(-c2ccccc2CP(=O)(O)O)c1)C(=O)O` (stereo not drawn) [Phenylbenzene-omega-phosphono-alpha-amino acid]?
remaining activity at 3.75 µM ([1]; Well no.=1361): 100%; remaining activity at 1.25 µM ([2]; Well no.=1361): 100%
